We go through 30 compounds from ChEMBL document CHEMBL1772993, “Design and synthesis of novel N-hydroxy-dihydronaphthyridinones as potent and orally bioavailable HIV-1 integrase inhibitors” (J Med Chem, 2011).

The nature of data set [1]: Clearance in dog. In kind it is ADME, organism-based, Canis lupus familiaris. As to conditions: in vivo.
A short description of data set [2]: Octanol-buffer distribution coefficient, log D of the compound at pH 7.4. Type of data set: physicochemical.
A short description of data set [3]: Half life in dog at 1 mg/kg, iv and 4.2 mg/kg, po. Type of data set: ADME, organism-based, Canis lupus familiaris. Conditions: in vivo.
A short description of data set [4]: Oral bioavailability in dog at 4.2 mg/kg. In kind it is ADME, organism-based, Canis lupus familiaris. As to conditions: in vivo.
A short description of data set [5]: Clearance in dog at 1 mg/kg, iv and 4.2 mg/kg, po. As to conditions: in vivo. In kind it is ADME, organism-based, Canis lupus familiaris.
A short description of data set [6]: Volume of distribution at steady state in dog at 1 mg/kg, iv and 4.2 mg/kg, po. In kind it is ADME, organism-based, Canis lupus familiaris. Conditions: in vivo, read-out: Vdss.

By logD is commonly meant the decadic logarithm of the distribution of all forms, ionised or not, between an organic phase and buffer at a given pH. A lower logD goes with lower lipophilicity. `CN(O)C(=O)c1cc2c(CN3CCC[C@H]3C(N)=O)cn(Cc3ccc(F)cc3)c2cn1`: the clearance in data set [1] was 15 mL/min/kg. In data set [2], the logD is 1.7.
Compound `O=C1c2ncc3c(ccn3Cc3ccc(F)cc3)c2CCN1O` had a logD in data set [2] of 1.39.
As for `O=C1c2ncc3c(ccn3Cc3ccc(F)cn3)c2CCN1O`, in data set [2], the logD worked out at 0.6.
Regarding `O=C1c2ncc3c(ccn3Cc3ncc(F)cc3F)c2CCN1O`, the logD in data set [2] is 0.77.
In turn, `N#Cc1cc(F)ccc1Cn1ccc2c3c(ncc21)C(=O)N(O)CC3` returned a logD in data set [2] of 1.15.
In the case of `N#Cc1c(Cn2ccc3c4c(ncc32)C(=O)N(O)CC4)ccc(F)c1Cl`, the logD in data set [2] was 1.7.
Take `CN(C)Cc1cn(Cc2ccc(F)cc2)c2cnc3c(c12)CCN(O)C3=O`: in data set [2], the logD was found to be 0.89.
The same measure, in the same setting: the result for `CN(CCO)Cc1cn(Cc2ccc(F)cc2)c2cnc3c(c12)CCN(O)C3=O` reads 0.67.
For orientation: half-life means how long it takes for the measured level to halve. In general, bioavailability refers to dose-corrected exposure relative to a reference, in per cent. With `O=C1c2ncc3c(c(CN4CCCCC4)cn3Cc3ccc(F)cc3)c2CCN1O`, the half-life in data set [3] was 2.6 h. The bioavailability in data set [4] turned out to be 33%. In data set [5], the clearance is 30 mL/min/kg. Besides, the logD in data set [2] came out at 1.15. Besides, the Vd in data set [6] is 6.7 L/kg.
`COCCN(C)Cc1cn(Cc2ccc(F)cc2)c2cnc3c(c12)CCN(O)C3=O` came in with a logD in data set [2] of 1.46.
In data set [2], `CN(Cc1cn(Cc2ccc(F)cc2)c2cnc3c(c12)CCN(O)C3=O)CC1CC1` gave a logD of 1.52.
Consider `O=C1c2ncc3c(c(CN4CCC(F)(F)C4)cn3Cc3ccc(F)cc3)c2CCN1O`, for which the logD in data set [2] was determined as 2.02.
In turn, `O=C1c2ncc3c(c(COCCc4ccccn4)cn3Cc3ccc(F)cc3)c2CCN1O` had a logD in data set [2] of 1.56.
In data set [2], `O=C1c2ncc3c(c(COCc4ccccn4)cn3Cc3ccc(F)cc3)c2CCN1O` yielded a logD of 1.63.
As to `O=C1c2ncc3c(c(COCC4CCOCC4)cn3Cc3ccc(F)cc3)c2CCN1O`, in data set [2], the logD came to 1.83.
`CC(C)OCCOCc1cn(Cc2ccc(F)cc2)c2cnc3c(c12)CCN(O)C3=O` yielded a logD in data set [2] of 2.12.
In the case of `O=C1c2ncc3c(c(COCCCc4ccccn4)cn3Cc3ccc(F)cc3)c2CCN1O`, the logD in data set [2] is 2.15. This logD and that of the compound before are within 0.2 log units of each other.
As to `O=C1c2ncc3c(c(COCc4ccccc4F)cn3Cc3ccc(F)cc3)c2CCN1O`, the logD in data set [2] worked out at 2.47.
Regarding `O=C(O)CCc1cn(Cc2ccc(F)cc2)c2cnc3c(c12)CCN(O)C3=O`, the logD in data set [2] was -0.74.
In data set [2], `O=C1c2ncc3c(c(CCCN4CCOCC4)cn3Cc3ccc(F)cc3)c2CCN1O` gave a logD of 0.1.
For `CC(=O)N(C)CCCc1cn(Cc2ccc(F)cc2)c2cnc3c(c12)CCN(O)C3=O`, the pH-dependent lipophilicity (logD) in data set [2] was determined as 0.76.
In the case of `CC(C)(O)CCc1cn(Cc2ccc(F)cc2)c2cnc3c(c12)CCN(O)C3=O`, the log distribution coefficient (logD) in data set [2] stood at 1.67.
Take `O=C1c2ncc3c(c(CCCOC4CCOCC4)cn3Cc3ccc(F)cc3)c2CCN1O`: the logD in data set [2] was found to be 2.1.
`O=C1c2ncc3c(c(CCC(F)(F)F)cn3Cc3ccc(F)cc3)c2CCN1O` gave a logD in data set [2] of 2.32.
Still for that read-out and setting: next, `O=C1c2ncc3c(c(S(=O)(=O)N4CCOCC4)cn3Cc3ccc(F)cc3)c2CCN1O`: 0.18; `COCCN(C)S(=O)(=O)c1cn(Cc2ccc(F)cc2)c2cnc3c(c12)CCN(O)C3=O`: 1.14.
On the same count and under the same terms, the result for `CN(C)S(=O)(=O)c1cn(Cc2ccc(F)cc2)c2cnc3c(c12)CCN(O)C3=O` reads 1.29; that for `O=C1c2ncc3c(c(S(=O)(=O)N4CCCC4)cn3Cc3ccc(F)cc3)c2CCN1O`, 1.63.
The same measure, in the same setting: next, `CC1CCN(S(=O)(=O)c2cn(Cc3ccc(F)cc3)c3cnc4c(c23)CCN(O)C4=O)CC1`: 2.14; `CN(O)C(=O)c1cc2ccn(Cc3ccc(F)cc3)c2cn1`: 2.04.
